# Results published in US8877748B2, “Heterocyclic fused anthraquinone derivatives, manufacturing method and pharmaceutical composition using thereof” (National Defense Medical Center, priority 2012, dated 2014).
# Experiments:
# [1] = system: COLO 205; experiment: NCI one-dose screening, colon cancer COLO 205; type: cell-based, human; conditions: 10 μM
# [2] = system: OVCAR-8; experiment: NCI one-dose screening, ovarian cancer OVCAR-8; type: cell-based, human; conditions: 10 μM
# [3] = system: PC-3; experiment: NCI one-dose screening, prostate cancer PC-3; type: cell-based, human; conditions: 10 μM
# [4] = system: TK-10; experiment: NCI one-dose screening, renal cancer TK-10; type: cell-based, human; conditions: 10 μM
# [5] = system: EKVX; experiment: NCI one-dose screening, non-small cell lung cancer EKVX; type: cell-based, human; conditions: 10 μM
# [6] = system: U251; experiment: NCI one-dose screening, CNS cancer U251; type: cell-based, human; conditions: 10 μM
# [7] = system: SK-OV-3; experiment: NCI one-dose screening, ovarian cancer SK-OV-3; type: cell-based, human; conditions: 10 μM
# [8] = system: RXF, 393; experiment: NCI one-dose screening, renal cancer RXF, 393; type: cell-based, human; conditions: 10 μM
# [9] = system: CCRF-CEM; experiment: NCI screening platform one-dose single concentration screening, leukemia CCRF-CEM; type: cell-based, human; conditions: 10 μM
# [10] = system: NCl/ADR-RES; experiment: NCI one-dose screening, breast cancer NCl/ADR-RES; type: cell-based, human; conditions: 10 μM; listed under Ovarian cancer
# [11] = system: SF-268; experiment: NCI one-dose screening, CNS cancer SF-268; type: cell-based, human; conditions: 10 μM
# [12] = system: MDA-MB-231/ATCC; experiment: NCI one-dose screening, breast cancer MDA-MB-231/ATCC; type: cell-based, human; conditions: 10 μM
# [13] = system: T-47D; experiment: NCI one-dose screening, breast cancer T-47D; type: cell-based, human; conditions: 10 μM
# [14] = system: SK-MEL-5; experiment: NCI one-dose screening, melanoma SK-MEL-5; type: cell-based, human; conditions: 10 μM
# [15] = system: DU145; experiment: NCI one-dose screening, prostate cancer DU145; type: cell-based, human; conditions: 10 μM
# [16] = system: HCT-15; experiment: NCI one-dose screening, colon cancer HCT-15; type: cell-based, human; conditions: 10 μM
# [17] = system: M14; experiment: NCI one-dose screening, melanoma M14; type: cell-based, human; conditions: 10 μM
# [18] = system: NCI-H23; experiment: NCI one-dose screening, non-small cell lung cancer NCI-H23; type: cell-based, human; conditions: 10 μM
# [19] = system: IGROV1; experiment: NCI one-dose screening, ovarian cancer IGROV1; type: cell-based, human; conditions: 10 μM
# [20] = system: UO-31; experiment: NCI one-dose screening, renal cancer UO-31; type: cell-based, human; conditions: 10 μM
# [21] = system: SR; experiment: NCI one-dose screening, leukemia SR; type: cell-based, human; conditions: 10 μM
# [22] = system: CAKI-1; experiment: NCI one-dose screening, renal cancer CAKI-1; type: cell-based, human; conditions: 10 μM
# [23] = system: SNB-75; experiment: NCI one-dose screening, CNS cancer SNB-75; type: cell-based, human; conditions: 10 μM
# [24] = system: SK-MEL-28; experiment: NCI one-dose screening, melanoma SK-MEL-28; type: cell-based, human; conditions: 10 μM
# [25] = system: A549/ATCC; experiment: NCI one-dose screening, non-small cell lung cancer A549/ATCC; type: cell-based, human; conditions: 10 μM
# [26] = system: UACC-62; experiment: NCI one-dose screening, melanoma UACC-62; type: cell-based, human; conditions: 10 μM
# [27] = system: HOP-92; experiment: NCI one-dose screening, non-small cell lung cancer HOP-92; type: cell-based, human; conditions: 10 μM
# [28] = system: BT-549; experiment: NCI one-dose screening, breast cancer BT-549; type: cell-based, human; conditions: 10 μM
# [29] = system: MOLT-4; experiment: NCI one-dose screening, leukemia MOLT-4; type: cell-based, human; conditions: 10 μM
# [30] = system: MALME-3M; experiment: NCI one-dose screening, melanoma MALME-3M; type: cell-based, human; conditions: 10 μM
# [31] = system: NCI-H226; experiment: NCI one-dose screening, non-small cell lung cancer NCI-H226; type: cell-based, human; conditions: 10 μM
# [32] = system: NCI-H522; experiment: NCI one-dose screening, non-small cell lung cancer NCI-H522; type: cell-based, human; conditions: 10 μM
# [33] = system: KM12; experiment: NCI one-dose screening, colon cancer KM12; type: cell-based, human; conditions: 10 μM
# [34] = system: SNB-19; experiment: NCI one-dose screening, CNS cancer SNB-19; type: cell-based, human; conditions: 10 μM
# [35] = system: LOX IMVI; experiment: NCI one-dose screening, melanoma LOX IMVI; type: cell-based, human; conditions: 10 μM
# [36] = system: OVCAR-4; experiment: NCI one-dose screening, ovarian cancer OVCAR-4; type: cell-based, human; conditions: 10 μM
# [37] = system: SN12C; experiment: NCI one-dose screening, renal cancer SN12C; type: cell-based, human; conditions: 10 μM
# [38] = system: HOP-62; experiment: NCI one-dose screening, non-small cell lung cancer HOP-62; type: cell-based, human; conditions: 10 μM
# [39] = system: UACC-257; experiment: NCI one-dose screening, melanoma UACC-257; type: cell-based, human; conditions: 10 μM
# [40] = system: HL-60, TB; experiment: NCI one-dose screening, leukemia HL-60, TB; type: cell-based, human; conditions: 10 μM
# [41] = system: HS 578-T; experiment: NCI one-dose screening, breast cancer HS 578-T; type: cell-based, human; conditions: 10 μM; Breast cancer
# [42] = system: K562cell line; experiment: NCI one-dose screening, leukemia K562; type: cell-based, human; conditions: 10 μM
# [43] = system: PC-3 prostate cancer cell line; experiment: SRB assay cell viability, PC-3 prostate cancer cell line; type: cell-based, human; conditions: Homo sapiens, PC-3 prostate cancer cell line, Table II prints no unit, μM printed, read-out: SRB assay: 50% inhibition of cancer cell proliferation of sample concentration (IC50) of PC-3 prostate cancer cell line
# [44] = system: PRMI-8226 cell line; experiment: NCI one-dose screening, leukemia PRMI-8226; type: cell-based, human; conditions: 10 μM
# [45] = system: NCI-H322M; experiment: NCI one-dose screening, non-small cell lung cancer NCI-H322M; type: cell-based, human; conditions: 10 μM; Non-small cell lung cancer
# [46] = system: MDA, -MB-435; experiment: NCI one-dose screening, breast cancer MDA, -MB-435; type: cell-based, human; conditions: 10 μM; listed under Melanoma
# [47] = system: SF-295; experiment: NCI one-dose screening, CNS cancer SF-295; type: cell-based, human; conditions: 10 μM
# [48] = system: SK-MEL-2; experiment: NCI one-dose screening, melanoma SK-MEL-2; type: cell-based, human; conditions: 10 μM
# [49] = system: MDA-MB-468; experiment: NCI one-dose screening, breast cancer MDA-MB-468; type: cell-based, human; conditions: 10 μM
# [50] = system: NCI-H460; experiment: NCI one-dose screening, non-small cell lung cancer NCI-H460; type: cell-based, human; conditions: 10 μM
# [51] = system: 786-O; experiment: NCI one-dose screening, renal cancer 786-O; type: cell-based, human; conditions: 10 μM
# [52] = system: HCC-2998; experiment: NCI one-dose screening, colon cancer HCC-2998; type: cell-based, human; conditions: 10 μM
# [53] = NCI one-dose screening, renal cancer A489; type: cell-based, human; conditions: 10 μM
# [54] = system: human tumor cell lines; experiment: NCI one-dose screening, Mean / Delta / Range of growth percent over all tested cell lines; type: cell-based; conditions: 10 μM
# [55] = system: OVCAR-3; experiment: NCI one-dose screening, ovarian cancer OVCAR-3; type: cell-based, human; conditions: 10 μM
# [56] = system: MCF7; experiment: NCI one-dose screening, breast cancer MCF7; type: cell-based, human; conditions: 10 μM
# [57] = system: SF-539; experiment: NCI one-dose screening, CNS cancer SF-539; type: cell-based, human; conditions: 10 μM
# [58] = system: HCT-116; experiment: NCI one-dose screening, colon cancer HCT-116; type: cell-based, human; conditions: 10 μM
structure (smiles),measurement,setting,value
"O=C1c2ccccc2C(=O)c2c1cc(N1CCOCC1)c1nsnc21 [C10, 4-morpholino-anthra[2,1-c][1,2,5] thiadiazol-6,11-dione]",Growth Percent COLO 205,[1],104.19%
same,Growth Percent OVCAR-8,[2],43.29%
same,Growth Percent PC-3,[3],56.59%
same,Growth Percent TK-10,[4],131.28%
same,Growth Percent EKVX,[5],84.52%
same,Growth Percent U251,[6],59.35%
same,Growth Percent SK-OV-3,[7],104.65%
same,Growth Percent RXF 393,[8],98.14%
same,Growth Percent CCRF-CEM,[9],48.31%
same,Growth Percent NCI/ADR-RES,[10],43.58%
same,Growth Percent SF-268,[11],75.83%
same,Growth Percent MDA-MB-231/ATCC,[12],39.16%
same,melting point,,259 to 260 °C
same,Growth Percent T-47D,[13],60.04%
same,Growth Percent SK-MEL-5,[14],15.98%
same,Growth Percent DU145,[15],68.98%
same,Growth Percent HCT-15,[16],55.97%
same,Growth Percent M14,[17],75.06%
same,Growth Percent NCI-H23,[18],39.65%
same,Growth Percent IGROV1,[19],54.88%
same,Growth Percent UO-31,[20],53.93%
same,Growth Percent SR,[21],68.92%
same,Growth Percent CAKI-1,[22],61.73%
same,Growth Percent SNB-75,[23],51.11%
same,Growth Percent SK-MEL-28,[24],104.55%
same,Growth Percent A549/ATCC,[25],100.58%
same,Growth Percent UACC-62,[26],62.43%
same,Growth Percent HOP-92,[27],90.59%
same,Growth Percent BT-549,[28],93.78%
same,Growth Percent MOLT-4,[29],47.64%
same,Growth Percent MALME-3M,[30],61.99%
same,Growth Percent NCI-H226,[31],87.42%
same,Growth Percent NCI-H522,[32],79.03%
same,Growth Percent KM12,[33],83.91%
same,Growth Percent SNB-19,[34],84.82%
same,Growth Percent LOX IMVI,[35],13.57%
same,Growth Percent OVCAR-4,[36],28.69%
same,Growth Percent SN12C,[37],71.73%
same,Growth Percent HOP-62,[38],60.63%
same,Growth Percent UACC-257,[39],79.36%
same,Growth Percent HL-60(TB),[40],66.73%
same,Growth Percent HS 578T,[41],88.35%
same,Growth Percent K562,[42],48.27%
same,IC50,[43],3.75 µM
same,Growth Percent RPMI-8226,[44],61.17%
same,Growth Percent NCI-H322M,[45],98.00%
same,Growth Percent MDA-MB-435,[46],0.52%
same,Growth Percent SF-295,[47],95.84. Percent
same,Growth Percent SK-MEL-2,[48],88.38%
same,Growth Percent MDA-MB-468,[49],45.59%
same,Growth Percent NCI-H460,[50],88.64%
same,Growth Percent 786-0,[51],109.16%
same,Growth Percent HCC-2998,[52],107.48%
same,Growth Percent A498,[53],88.30%
same,Growth Percent Delta,[54]; delta over all cell lines,67.45%
same,Growth Percent Mean,[54]; mean over all cell lines,67.97%
same,Growth Percent Range,[54]; range over all cell lines,130.76%
same,Growth Percent OVCAR-3,[55],6.64%
same,Growth Percent MCF7,[56],55.12%
same,Growth Percent SF-539,[57],88.62%
same,Growth Percent HCT-116,[58],18.89%
